Experimental data published in paper PMC11318591 (ACS Medicinal Chemistry Letters, 2024).
≈ marks a conversion by molar mass, not a printed value. Like-named read-outs stand apart in the source and are kept apart here. One block for each compound: values may come before it.

What was measured:
[1] = test system: S. enterica Typhimurium 14028 ΔtolC1::kan; experiment: Minimal inhibitory concentration; assay type: cell-based, Salmonella enterica serovar Typhimurium; conditions: for MIC: Salmonella enterica, TYPHIMURIUM, read-out: S. enterica Typhimurium 14028 ΔtolC1::kan MIC
S. aureus DNA gyrase = S. aureus DNA gyrase (Staphylococcus aureus, UniProt P20831); experiment: DNA cleavage assay
[2] = MIC wildtype 14028 vs efflux-deficient ΔtolC1::kan

Structure (SMILES): COc1ccc2ncc(F)c(CCN3CCC(/C=C\c4ccc(C)cc4)CC3)c2n1 [21a]
- Fold Change [1]: ≥8

Structure (SMILES): COc1ccc2ncc(F)c(CCN3CCC(/C=C\c4ccc5c(c4)OCCO5)CC3)c2n1 [21b]
- Fold Change [1, 2]: ≥16

Structure (SMILES): O=c1ccc2ncc(=O)n3c2n1C[C@H]3CN1CCC(NCc2cc3c(cn2)OCCC3)CC1 [Gep., gepotidacin, reference compound]
- Fold Change [1, 2]: 4–16
- MIC [1]: 0.125 to 0.5 µg/mL (≈ 0.279 to 1.11 µM)

More lines, now with the values ahead:

- MIC [1]: 0.5 to 1 µg/mL (≈ 1.23 to 2.47 µM)
Structure (SMILES): COc1ccc2ncc(F)c(CCN3CCC(/C=C/c4ccc(C)cc4)CC3)c2n1 [13a]

- levels of SSBs (S. aureus DNA gyrase): lower levels of SSBs
Structure (SMILES): COc1ccc2ncc(F)c(CCN3CCC(NCc4ccc(C)cc4)CC3)c2n1 [compound 40]

- levels of SSBs (S. aureus DNA gyrase): lower levels of SSBs
Structure (SMILES): COc1ccc2ncc(F)c(CCN3CCC(C(N)Cc4ccc(C)cc4)CC3)c2n1 (stereo not drawn) [9a]

- MIC [1]: 0.5 µg/mL (≈ 1.03 µM)
Structure (SMILES): COc1ccc2ncc(F)c(CCN3CCC([C@@H](O)[C@H](O)c4ccc5c(c4)OCCO5)CC3)c2n1 [16b]

- MIC [1]: 0.5 to 1 µg/mL (≈ 1.14 to 2.28 µM)
Structure (SMILES): COc1ccc2ncc(F)c(CCN3CCC([C@@H](O)[C@H](O)c4ccc(C)cc4)CC3)c2n1 [16a]
